# Reference: patent publication US20070128217A1 (priority 2003, published 2007)
# Columns and labels:
# [1] = test system: antibodies in sera from SARS patients (sera 1a, 1b, 2, 6, 37, 62, London, SARS-yellow, SARS-green); format: binding, human; set-up: Binding of serum 6 to linear peptides of protein X1 of SARS-CoV Urbani / Binding of serum 37 to linear peptides of protein X1 of SARS-CoV Urbani / Binding of serum 6 to looped/cyclic peptide (PEPSCAN-ELISA) / Binding of serum 37 to looped/cyclic peptide (PEPSCAN-ELISA) / Binding of serum 37 to looped/cyclic peptides of protein X1 of SARS-CoV Urbani / Binding of serum 6 to linear peptides of protein X2 / Binding of serum 37 to linear peptides of protein X2 / Binding of serum 37 to looped/cyclic peptides of protein X2 of SARS-CoV Urbani / Binding of serum 6 to linear peptides of protein M of SARS-CoV Urbani / Binding of serum 37 to linear peptides of protein M of SARS-CoV Urbani / Binding of serum 6 to looped/cyclic peptides of protein M of SARS-CoV Urbani / Binding of serum 37 to looped/cyclic peptides of protein M of SARS-CoV Urbani / Binding of serum 6 to linear peptides of protein X3 of SARS-CoV Urbani / Binding of serum 37 to linear peptides of protein X3 of SARS-CoV Urbani / Binding of serum 37 to looped/cyclic peptides of protein X3 of SARS-CoV Urbani / Binding of serum 6 to linear peptides of protein X4 of SARS-CoV Urbani / Binding of serum 37 to linear peptides of protein X4 of SARS-CoV Urbani / Binding of serum 37 to looped/cyclic peptides of protein X4 of SARS-CoV Urbani / Binding of serum 6 to linear peptides of protein X5 of SARS-CoV Urbani / Binding of serum 37 to linear peptides of protein X5 of SARS-CoV Urbani / Binding of serum 37 to looped/cyclic peptides of protein X5 of SARS-CoV Urbani / Binding of serum 6 to linear peptides of protein N of SARS-CoV Urbani / Binding of serum 37 to linear peptides of protein N of SARS-CoV Urbani / Binding of serum 6 to linear peptide (PEPSCAN-ELISA) / Binding of serum 1a to looped/cyclic peptides of protein N of SARS-CoV Urbani / Binding of serum 1b to looped/cyclic peptides of protein N of SARS-CoV Urbani / Binding of serum 2 to looped/cyclic peptides of protein N of SARS-CoV Urbani / Binding of serum 6 to looped/cyclic peptides of protein N of SARS-CoV Urbani / Binding of serum 37 to looped/cyclic peptides of protein N of SARS-CoV Urbani / Binding of serum 62 to looped/cyclic peptides of protein N of SARS-CoV Urbani / Binding of serum London to looped/cyclic peptides of protein N of SARS-CoV Urbani / Binding of serum SARS-green to looped/cyclic peptides of protein N of SARS-CoV Urbani: unit not given here
# [2] = test system: recombinant human anti-SARS-CoV antibody 03-018; format: binding; set-up: Binding of antibody 03-018 to linear peptides of the N protein of SARS-CoV Urbani / Binding of antibody 03-018 to looped/cyclic peptides of the N protein of SARS-CoV Urbani: unit not given here
# [3] = test system: rabbit serum obtained by immunizing a rabbit with the SARS-CoV strain Frankfurt 1; format: binding; set-up: Binding of a rabbit serum to linear peptides / Binding of a rabbit serum to looped peptides / Rabbit serum linear peptides / Rabbit serum looped peptides / Binding of a rabbit serum to linear peptides of protein N of SARS-CoV Urbani (Rabbit serum linear peptides) / Binding of a rabbit serum to looped/cyclic peptides of protein N of SARS-CoV Urbani (Rabbit serum looped peptides): unit not given here
# [4] = test system: control sera (pooled serum of ten healthy LUMC hospital workers; commercial negative donor pooled serum from the Dutch bloodbank); format: binding, human; set-up: Binding of Control serum LUMC to linear peptides / Binding of Control serum Blood-bank to linear peptides / Binding of Control serum LUMC to looped peptides / Binding of Control Serum Blood-Bank to Looped peptides / Binding of Control serum LUMC to linear peptides of the protein M of SARS-CoV Urbani / Binding of Control serum Blood-bank to linear peptides of the protein M of SARS-CoV Urbani / Binding of Control serum LUMC to looped peptides of the protein M of SARS-CoV Urbani / Binding of Control Serum Blood-Bank to Looped peptides of the protein M of SARS-CoV Urbani: unit not given here
Sequence,Binding of serum 1a to looped/cyclic peptides of protein N of SARS-CoV Urbani [1],Binding of serum 1b to looped/cyclic peptides of protein N of SARS-CoV Urbani [1],Binding of serum 2 to looped/cyclic peptides of protein N of SARS-CoV Urbani [1],Binding of serum 6 to looped/cyclic peptides of protein N of SARS-CoV Urbani [1],Binding of serum 37 to looped/cyclic peptides of protein N of SARS-CoV Urbani [1],Binding of serum 62 to looped/cyclic peptides of protein N of SARS-CoV Urbani [1],Binding of serum London to looped/cyclic peptides of protein N of SARS-CoV Urbani [1],Binding of serum SARS-green to looped/cyclic peptides of protein N of SARS-CoV Urbani [1],Binding of serum SARS-yellow to looped/cyclic peptides of protein N of SARS-CoV Urbani [1],Binding of antibody 03-018 to linear peptides of the N protein of SARS-CoV Urbani [2],Binding of antibody 03-018 to looped/cyclic peptides of the N protein of SARS-CoV Urbani [2],Binding of a rabbit serum to linear peptides of protein N of SARS-CoV Urbani (Rabbit serum linear peptides) [3],Binding of a rabbit serum to looped/cyclic peptides of protein N of SARS-CoV Urbani (Rabbit serum looped peptides) [3],Binding of Control Serum Blood-Bank to Looped peptides [4],Binding of Control serum Blood-bank to linear peptides [4],Binding of Control serum LUMC to linear peptides [4],Binding of Control serum LUMC to looped peptides [4],Binding of serum 1a to linear peptides of protein N of SARS-CoV Urbani [1],Binding of serum 1b to linear peptides of protein N of SARS-CoV Urbani [1],Binding of serum 2 to linear peptides of protein N of SARS-CoV Urbani [1],further results
YAEGSRGGSQASSRS,0.3,0.2,0.3,0.2,0.4,0.2,0.3,0.3,0.1,0.1,0.2,0.2,0.0,0.4,0.9,0.7,0.6,–,–,–,Binding of serum 1a to linear peptide (PEPSCAN-ELISA) [1]: 0.3; Binding of serum 1b to linear peptide (PEPSCAN-ELISA) [1]: 0.1; Binding of serum 2 to linear peptide (PEPSCAN-ELISA) [1]: 0.3; Binding of serum 6 to linear peptide (PEPSCAN-ELISA) [1]: 0.4; Binding of serum 37 to linear peptide (PEPSCAN-ELISA) [1]: 0.7; Binding of serum 62 to linear peptide (PEPSCAN-ELISA) [1]: 0.7; Binding of serum London to linear peptide (PEPSCAN-ELISA) [1]: 0.5; Binding of serum SARS-green to linear peptide (PEPSCAN-ELISA) [1]: 0.6; Binding of serum SARS-yellow to linear peptide (PEPSCAN-ELISA) [1]: 0.6
YFYYLGTGPEASLPY,0.4,0.3,0.5,0.3,0.9,0.7,0.4,0.4,0.6,0.1,0.2,0.1,0.6,0.7,0.7,0.6,0.8,0.3,0.1,0.3,Binding of serum 6 to linear peptides of protein N of SARS-CoV Urbani [1]: 0.2; Binding of serum 37 to linear peptides of protein N of SARS-CoV Urbani [1]: 0.7; Binding of serum 62 to linear peptides of protein N of SARS-CoV Urbani [1]: 0.8; Binding of serum London to linear peptides of protein N of SARS-CoV Urbani [1]: 0.4; Binding of serum SARS-green to linear peptides of protein N of SARS-CoV Urbani [1]: 0.0; Binding of serum SARS-yellow to linear peptides of protein N of SARS-CoV Urbani [1]: 0.7
YGANKEGIVWVATEG,0.4,0.3,0.5,0.3,0.8,0.7,0.4,0.4,0.7,0.1,0.2,0.1,0.5,0.7,0.6,0.6,0.7,0.3,0.1,0.2,Binding of serum 6 to linear peptides of protein N of SARS-CoV Urbani [1]: 0.2; Binding of serum 37 to linear peptides of protein N of SARS-CoV Urbani [1]: 0.8; Binding of serum 62 to linear peptides of protein N of SARS-CoV Urbani [1]: 0.7; Binding of serum London to linear peptides of protein N of SARS-CoV Urbani [1]: 0.4; Binding of serum SARS-green to linear peptides of protein N of SARS-CoV Urbani [1]: 0.4; Binding of serum SARS-yellow to linear peptides of protein N of SARS-CoV Urbani [1]: 0.7
YHGAIKLDDKDPQFK,0.2,0.1,0.2,0.1,0.4,0.3,0.3,0.1,0.1,0.1,0.2,0.2,0.3,–,–,–,–,0.3,0.2,0.3,Binding of serum 6 to linear peptides of protein N of SARS-CoV Urbani [1]: 0.2; Binding of serum 37 to linear peptides of protein N of SARS-CoV Urbani [1]: 0.8; Binding of serum 62 to linear peptides of protein N of SARS-CoV Urbani [1]: 1.6; Binding of serum London to linear peptides of protein N of SARS-CoV Urbani [1]: 0.7; Binding of serum SARS-green to linear peptides of protein N of SARS-CoV Urbani [1]: 0.9; Binding of serum SARS-yellow to linear peptides of protein N of SARS-CoV Urbani [1]: 0.7; Control Serum Blood-Bank Looped peptides [4]: 0.4; Control serum Blood-bank linear peptides [4]: 0.9; Control serum LUMC linear peptides [4]: 0.9; Control serum LUMC looped peptides [4]: 0.3
